Results: ChEMBL document CHEMBL1129432, “Structure-activity relationships of a series of novel (piperazinylbutyl)thiazolidinone antipsychotic agents related to 3-[4-[4-(6-fluorobenzo[b]thien-3-yl)-1-piperazinyl]butyl]-2,5,5- trimethyl-4-thiazolidinone maleate” (J Med Chem, 1996)
pIC50: −log10 of the molar value.

How the values were obtained:
[1] = biological target: T1, 5-hydroxytryptamine receptor 1A (Rattus norvegicus, UniProt P19327); assay: Binding affinity towards serotonin 5-HT1A receptor was determined in rat hippocampus using [3H]8-OH-DPAT as ligand; format: tissue-based
T1 sequence (P19327 whole entry): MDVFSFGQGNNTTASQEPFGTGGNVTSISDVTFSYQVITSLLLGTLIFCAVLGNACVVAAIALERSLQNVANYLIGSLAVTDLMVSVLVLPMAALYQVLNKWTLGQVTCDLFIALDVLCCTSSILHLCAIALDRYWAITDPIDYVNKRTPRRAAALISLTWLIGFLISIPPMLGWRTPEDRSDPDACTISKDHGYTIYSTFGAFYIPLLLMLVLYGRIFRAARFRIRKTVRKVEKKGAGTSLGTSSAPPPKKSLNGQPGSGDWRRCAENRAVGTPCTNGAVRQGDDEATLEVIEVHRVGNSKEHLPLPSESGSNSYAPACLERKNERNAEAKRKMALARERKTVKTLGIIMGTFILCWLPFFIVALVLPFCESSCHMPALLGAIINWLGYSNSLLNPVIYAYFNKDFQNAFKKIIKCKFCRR

[2] = biological target: Serotonin 2 (5-HT2) receptor (Rattus norvegicus, UniProt P30994+P08909+P14842); assay: Binding affinity towards serotonin 5-HT2 receptor was determined in rat cortex using [3H]spiperone as ligand
[3] = biological target: D(2) dopamine receptor (Rattus norvegicus, UniProt P61169); assay: Binding affinity towards Dopamine receptor D2 was determined in rat striatum using [3H]- spiperone as radioligand; format: tissue-based
D(2) dopamine receptor, sequence (P61169 whole entry): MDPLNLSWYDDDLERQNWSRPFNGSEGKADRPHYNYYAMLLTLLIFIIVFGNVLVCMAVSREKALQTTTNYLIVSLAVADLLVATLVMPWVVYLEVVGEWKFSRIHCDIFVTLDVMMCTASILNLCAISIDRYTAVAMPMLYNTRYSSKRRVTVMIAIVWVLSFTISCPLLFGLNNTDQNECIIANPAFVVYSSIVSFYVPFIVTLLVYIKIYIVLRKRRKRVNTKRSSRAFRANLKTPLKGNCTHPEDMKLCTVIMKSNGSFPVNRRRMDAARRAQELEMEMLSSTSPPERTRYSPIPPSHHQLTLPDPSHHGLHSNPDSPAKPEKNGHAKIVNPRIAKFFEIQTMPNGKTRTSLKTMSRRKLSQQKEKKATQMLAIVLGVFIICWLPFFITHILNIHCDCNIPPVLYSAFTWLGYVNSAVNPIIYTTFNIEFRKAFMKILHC

[4] = tested on: Rattus norvegicus; assay: Compound at an intraperitoneal dose of 20 mg/Kg was tested for the inhibition of apomorphine-induced stereotypy in rat; format: functional; set-up: scale not given: the % may be the effect or the level left
[5] = Compound at an intraperitoneal dose of 40 mg/Kg was tested for the inhibition of apomorphine-induced stereotypy in rat; format: functional; set-up: scale not given: the % may be the effect or the level left
[6] = Intraperitoneal effective dose required for inhibition of apomorphine-induced stereotypy in rat; format: functional; conditions: ip
[7] = tested on: Rattus norvegicus; assay: Compound at an intraperitoneal dose of 80 mg/Kg was tested for the inhibition of apomorphine-induced stereotypy in rat; format: functional; set-up: scale not given: the % may be the effect or the level left
[8] = tested on: Rattus norvegicus; assay: Compound at an intraperitoneal dose of 10 mg/Kg was tested for the inhibition of apomorphine-induced stereotypy in rat; format: functional; set-up: scale not given: the % may be the effect or the level left
[9] = tested on: Rattus norvegicus; assay: Compound at an intraperitoneal dose of 2.5 mg/Kg was tested for the inhibition of apomorphine-induced stereotypy in rat; format: functional; set-up: scale not given: the % may be the effect or the level left
[10] = tested on: Rattus norvegicus; assay: Compound at an intraperitoneal dose of 5 mg/Kg was tested for the inhibition of apomorphine-induced stereotypy in rat; format: functional; set-up: scale not given: the % may be the effect or the level left

Structure (SMILES)	pIC50 [1]	IC50 [2]	pIC50 [3]	further results
O=C1N(CCCCN2CCN(c3nsc4cc(Cl)ccc34)CC2)CSC12CCCCC2	6.01	1060 nM	6.17	Activity [4]: 0%; Activity [5]: 80%
O=C1N(CCCCN2CCN(c3cn(-c4ccc(F)cc4)c4ccccc34)CC2)CSC12CCCCC2	5.04	142 nM	7.74	
O=C1C(CC(F)(F)F)SCN1CCCCN1CCN(c2nsc3ccccc23)CC1 (stereo not given)	8.52		6.87	ED50 [6]: 3.3 mg/kg
Cc1cccc(N2CCN(CCCCN3C(=O)C(C)(C)SC3(C)C)CC2)c1	7.42	439 nM	5.74	
CC1(C)SCN(CCCCN2CCN(c3cccc(C(F)(F)F)c3)CC2)C1=O	8.15	90 nM	5.79	
COc1ccccc1N1CCN(CCCCN2C(=O)C(C)(C)SC2(C)C)CC1	7.74			
O=C1N(CCCCN2CCN(c3cn(-c4ccccc4)c4ccccc34)CC2)CSC12CCCCC2		45 nM	6.33	ED50 [6]: 27.4 mg/kg
CC1SC(C)(C)C(=O)N1CCCCN1CCN(c2cn(-c3ccccc3)c3ccccc23)CC1 (stereo not given)	5.59	186 nM	6.70	Activity [7]: 67%; Activity [5]: 0%
CC1(C)SCN(CCCCN2CCN(c3cn(-c4ccccc4)c4ccccc34)CC2)C1=O	5.76	294 nM	6.72	ED50 [6]: 19.6 mg/kg
CC1SC(C)(C)C(=O)N1CCCCN1CCN(c2nsc3ccccc23)CC1 (stereo not given)	8.15	2 nM		Activity [4]: 0%; Activity [5]: 40%
O=C1N(CCCCN2CCN(c3nsc4ccccc34)CC2)CSC12CCCC2	8.70	3 nM		Activity [8]: 90%
CC1(C)SCN(CCCCN2CCN(c3csc4cc(F)ccc34)CC2)C1=O		10 nM	7.85	Activity [8]: 0%
CC1SC(C)(C)C(=O)N1CCCCN1CCN(c2csc3cc(Cl)ccc23)CC1 (stereo not given)	6.07	1540 nM	5.33	
CC1(C)SCN(CCCCN2CCN(c3ccc4ccccc4n3)CC2)C1=O	6.82	446 nM		
CC1SC(C)(C)C(=O)N1CCCCN1CCN(c2nsc3cc(Cl)ccc23)CC1 (stereo not given)		271 nM		
Cc1cc2c(s1)Nc1ccccc1N=C2N1CCN(C)CC1 [OLANZAPINE]		47 nM		
O=C1N(CCCCN2CCN(C3=NS(=O)(=O)c4ccccc43)CC2)CSC12CCCC2		> 20000 nM		

Structure (SMILES)	pIC50 [1]	IC50 [2]	pIC50 [3]	further results
CSc1cccc(N2CCN(CCCCN3C(=O)CSC3(C)C)CC2)c1	8.05	503 nM	5.61	
Cc1nc2n(c(=O)c1CCN1CCC(c3noc4cc(F)ccc34)CC1)CCCC2 [RISPERIDONE]				ED50 [6]: 3.2 mg/kg
Cc1cccc(N2CCN(CCCCN3C(=O)CSC3(C)C)CC2)c1	7.59		5.43	
CC1(C)SC(C)(C)N(CCCCN2CCN(c3nsc4ccccc34)CC2)C1=O	7.77	3.5 nM	6.70	
CC1SC(C)(C)C(=O)N1CCCCN1CCN(c2cn(-c3ccccc3)c3cc(F)ccc23)CC1 (stereo not given)	5.09	119 nM	5.96	
CC1SC2(CCCC2)C(=O)N1CCCCN1CCN(c2cn(-c3ccccc3)c3ccccc23)CC1 (stereo not given)	4.93	98.1 nM	6.45	ED50 [6]: 41.7 mg/kg
CC1SC(C)(C)C(=O)N1CCCCN1CCN(c2cn(-c3ccc(F)cc3)c3ccccc23)CC1 (stereo not given)	5.52	126 nM	7.23	ED50 [6]: 16.4 mg/kg
CC1(C)SCN(CCCCN2CCN(c3cc4ccccc4cn3)CC2)C1=O	6.20	85 nM	5.07	
CC1(C)SCC(=O)N1CCCCN1CCN(c2nsc3ccccc23)CC1	8.15	12 nM	6.71	
CC(C)(O)C1SCN(CCCCN2CCN(c3csc4cc(F)ccc34)CC2)C1=O (stereo not given)	7.04	105 nM	6.34	Activity [9]: 10%; Activity [10]: 40%
CC1SC2(CCCC2)C(=O)N1CCCCN1CCN(c2csc3cc(Cl)ccc23)CC1 (stereo not given)	6.11	580 nM	6.21	
CC(C)(O)C1SCN(CCCCN2CCN(c3nsc4ccccc34)CC2)C1=O (stereo not given)	7.92	18.9 nM	7.54	ED50 [6]: 2.3 mg/kg
O=C1N(CCCCN2CCN(c3nsc4ccccc34)CC2)CSC12Cc1ccccc1C2	7.28	1110 nM	6.16	Activity [7]: 50%; Activity [5]: 0%
O=C1N(CCCCN2CCN(c3nsc4ccccc34)CC2)CSC12CCCCC2	8.70	18 nM		Activity [8]: 100%
CC1(C)SCN(CCCCN2CCN(c3cn(-c4ccc(F)cc4)c4ccccc34)CC2)C1=O	5.63	53 nM	6.88	ED50 [6]: 7.1 mg/kg
CC1(C)SCC(=O)N1CCCCN1CCN(c2cccc(C(F)(F)F)c2)CC1			5.95	

More lines, main results first:

pIC50 [1]	IC50 [2]	pIC50 [3]	Structure (SMILES)	further results
7.96	5 nM	7.07	CC1SCN(CCCCN2CCN(c3nsc4ccccc34)CC2)C1=O (stereo not given)	Activity [4]: 0%; Activity [5]: 17%
7.89	569 nM	5.75	Cc1ccccc1N1CCN(CCCCN2CSC(C)(C)C2=O)CC1	
7.92			Cc1cccc(N2CCN(CCCCN3CSC(C)(C)C3=O)CC2)c1	
7.08		6.11	Cc1cccc(N2CCN(CCCCN3CSCC3=O)CC2)c1C	
8.10	1 nM		CC1(C)SCN(CCCCN2CCN(c3nsc4ccccc34)CC2)C1=O	ED50 [6]: 8.9 mg/kg
6.85			O=C1CSCN1CCCCN1CCN(c2ccc(F)cc2)CC1	
8.70	16 nM	6.61	O=C1N(CCCCN2CCN(c3csc4ccccc34)CC2)CSC12CCCC2	
7.21		5.79	Cc1ccccc1N1CCN(CCCCN2CSCC2=O)CC1	
7.47		5.71	O=C1CSCN1CCCCN1CCN(c2cccc(C(F)(F)F)c2)CC1	
6.66			COc1ccccc1N1CCN(CCCCN2CSC(C)C2=O)CC1 (stereo not given)	
8.22	414 nM	6.04	Cc1cccc(N2CCN(CCCCN3CSC(C)(C)C3=O)CC2)c1C	
		6.08	CC1(C)SCC(=O)N1CCCCN1CCN(c2cccc(Cl)c2)CC1	
8.00		5.65	CC1SCC(=O)N1CCCCN1CCN(c2cccc(Cl)c2)CC1 (stereo not given)	
6.86		5.13	COc1cccc(N2CCN(CCCCN3CSCC3=O)CC2)c1	
7.96	588 nM	6.26	COc1ccccc1N1CCN(CCCCN2CSC(C)(C)C2=O)CC1	
8.00		6.29	COc1ccccc1N1CCN(CCCCN2C(=O)CSC2(C)C)CC1	
7.96	7 nM	6.65	O=C1CSCN1CCCCN1CCN(c2nsc3ccccc23)CC1	
5.89		5.06	O=C1CSCN1CCCCN1CCN(c2ccc(Cl)cc2)CC1	
6.99	196 nM	6.66	O=C1N(CCCCN2CCN(c3csc4ccccc34)CC2)CSC12CCCCC2	Activity [7]: 50%; Activity [5]: 33%
8.70	492 nM	6.82	COc1ccccc1N1CCN(CCCCN2CSC3(CCCC3)C2=O)CC1	
6.48	641 nM		O=C1CSCN1CCCCN1CCN(c2ccc3ccccc3n2)CC1	
7.64		6.19	O=C1CSCN1CCCCN1CCN(c2ccccc2Cl)CC1	
5.86	2310 nM		CC1(C)SCN(CCCCN2CCN(c3nc4ccccc4s3)CC2)C1=O	
7.24		5.66	O=C1CSCN1CCCCN1CCN(c2cccc(Cl)c2)CC1	
6.44	8420 nM		O=C1CSCN1CCCCN1CCN(c2nc3ccccc3s2)CC1	
6.85		4.90	Cc1cccc(N2CCN(CCCCN3CSCC3=O)CC2)c1	
